This is an account of results in ChEMBL document CHEMBL1201862, “PubChem BioAssay data set” (2004).

Test systems include LXFL 529; HOP-18; XF498; M19-MEL; KM-20L2; SNB-78; RXF 631; DMS-273; DLD-1.
What all share (assay): NCI-60 cell line screen, 48 h

Structures are written as SMILES.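 Growth conditions: 96-well plates. Treatment: test compound, 48 hours, 5 concentrations. Analysis: linear interpolation between bracketing concentrations; unreached endpoints set to highest concentration. The concentration for 50% growth inhibition is given as GI50.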 Active and inactive are the calls of the source. Rule as the data show it: active = GI50 up to about 1.1 µM and inactive = higher.

For `COc1cccc2c1[C@H]1CO[C@H]3C4C[C@H](C(=O)O)C([C@@H](C2)N13)N4C` (stereo partly drawn), the GI50 is 2.27 µM (inactive) in the test on LXFL 529; 6.12 µM (inactive) in the test on HOP-18; 2.08 µM (inactive) in the test with XF498; 3.64 µM (inactive) in the test on M19-MEL; 3.24 µM (inactive) with KM-20L2; 3.72 µM (inactive) with SNB-78. Moreover, the results for the GI50 in the test with RXF 631, with DMS-273 and in the test on DLD-1 were > 10 µM (inactive), 3.6 µM (inactive) and 2.84 µM (inactive), respectively.

`FC1OC2OC1C(OCc1ccccc1)C(OCc1ccccc1)C2OCc1ccccc1` (stereo not drawn): the GI50 is 34 µM (inactive) in the test with LXFL 529; 24.3 µM (inactive) with HOP-18; 23.6 µM (inactive) in the test with XF498; 29.8 µM (inactive) with M19-MEL; 42.8 µM (inactive) in the test on KM-20L2; 61.1 µM (inactive) in the test on SNB-78. Also, the GI50 was 71.1 µM (inactive) with RXF 631, > 100 µM (inactive) with DMS-273 and 37.9 µM (inactive) in the test on DLD-1.

In the case of `C/C(=N\NC(=[Se])N(C)C)c1ccccn1`, the GI50 was < 0.01 µM (active) in the test with LXFL 529; 2.1 µM (inactive) with HOP-18; 0.198 µM (active) with XF498; 0.339 µM (active) in the test with M19-MEL; < 0.01 µM (active) in the test with KM-20L2; 2.97 µM (inactive) with SNB-78. In addition, the GI50 in the test on RXF 631 was < 0.01 µM (active); in the test on DMS-273, 0.316 µM (active); with DLD-1, < 0.01 µM (active).

In the case of `CC(=O)Oc1c(C)n(CCCl)ccc1=O`, the GI50 was > 100 µM (inactive) with LXFL 529; > 100 µM (inactive) in the test on HOP-18; > 100 µM (inactive) in the test on XF498; > 100 µM (inactive) in the test on M19-MEL; 57.7 µM (inactive) in the test on KM-20L2; > 100 µM (inactive) in the test on SNB-78. Further, the values for the GI50 in the test on RXF 631, with DMS-273 and with DLD-1 were 59.4 µM (inactive), > 100 µM (inactive) and > 100 µM (inactive), respectively.

`CC#C[C@@]1(O)CCCCC1O` (stereo partly drawn): the GI50 in the test with HOP-18, in the test on XF498, with M19-MEL, in the test on KM-20L2, in the test on SNB-78 and in the test with RXF 631 was > 100 µM (inactive) each time. For the same molecule, in the test with DMS-273, the GI50 was > 100 µM (inactive).
